Common to all, as to test: growth of human tumour cells (NCI), 48 h
For test [1], the system named is SF-268 CNS.
In test [2] the test system is SK-MEL-5 melanoma.
In test [3] the test system is HOP-92 NSCLC.
For test [4], the system named is LOX IMVI melanoma.
The test system of test [5] is NCI-H226 lung.
Test [6] has as its system NCI-H23 lung.
Test [7] has as its system HCT-15 colon.
Test [8] concerns RXF 393 renal.
The test system of test [9] is NCI-H460 lung.
Test [10] has as its system BT-549 breast.

SMILES strings stand for the structures.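 Dose response: 5 concentrations. Exposure: 48 h. Format: 96-well plates. Endpoint: linear interpolation; highest concentration if not reached. At the GI50, growth is halved. TGI marks complete inhibition of growth.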

For the compound `CC(=O)OC1C(O)COC(Oc2c(C)c3c4c(c2O)[C@@H](C)CC[C@@H]4[C@@H](C)C[C@H]3C=C(C)C)C1O` (stereo partly drawn), the GI50 in test [1] was 12.9 µM; in test [2] it was 15.3 µM; in test [3], 15.6 µM; in test [4], 18 µM; in test [5], 24.5 µM; in [6], 17.9 µM. The GI50 in [7] was 15.2 µM; in test [8], 7.81 µM; in test [9], 16.3 µM. Moreover, the TGI in test [1] came to 32.7 µM; in test [2], 32.4 µM; in test [3], 32 µM; in test [4], 35.4 µM; in test [5], 64.8 µM; in [6], 37.5 µM. Further, the TGI in test [7] came to 31.7 µM; in [8] it was 25.4 µM; in test [9], 47.1 µM.

On to `CCCCCCCCCCSS(=O)(=O)c1ccc(C)cc1`, for which the TGI in test [1] amounted to 19 µM; in test [2], 17.2 µM; in [3], 27.2 µM; in [4], 15.7 µM; in test [5] it was 37.3 µM; in test [6], 35.4 µM. The TGI in [7] was found to be 28.2 µM; in test [8], 32.4 µM; in test [9], 23.9 µM.

For the compound `O=C(/C=C/c1ccccc1)c1ccc(O)c(CN2CCN(c3cc4c(cc3F)c(=O)c(C(=O)O)cn4C3CC3)CC2)c1`, the GI50 in [1] is 2.53 µM; in test [2], 1.89 µM; in test [10], 0.989 µM; in test [5] it was 3.54 µM; in test [6], 2.2 µM; in test [7], 2.64 µM. In addition, the GI50 in test [8] was 1.55 µM; in test [9] it was 3.85 µM. Further, the TGI in test [1] was greater than 100 µM; in test [2], 7.48 µM; in test [10], 26.3 µM; in test [5] it was greater than 100 µM; in test [6] it was 16.9 µM; in test [7], greater than 100 µM. Also, the TGI in [8] was 15.8 µM; in test [9], greater than 100 µM.

Regarding `CC(C)[C@H](COC(C)(C)C)N=CN1CSc2ccccc21`, the TGI in [1] is greater than 100 µM; in test [2], 63 µM; in test [3], 41.9 µM; in test [4], 93.2 µM; in test [5], greater than 100 µM; in test [6], greater than 100 µM. Further, the TGI is greater than 100 µM in test [7], 95.2 µM in test [8] and greater than 100 µM in test [9].

`COc1cc(/C=C\c2cc(/C=C\c3ccc(O)c(OC)c3)n(C(=O)Nc3ccc(C(F)(F)F)cc3)n2)ccc1O`: the GI50 in [1] is 2.8 µM; in [2] it was 2.27 µM; in test [3], 2.35 µM; in test [10] it was 1.96 µM; in test [5] it was 7.29 µM; in test [6], 2.13 µM. For the same compound, the GI50 in test [7] was 2.69 µM; in test [9], 3.22 µM. In addition, the TGI came out at 15.4 µM in [1]; 6.89 µM in test [2]; 6.79 µM in test [3]; 3.67 µM in test [10]; 27.6 µM in test [5]; 6.48 µM in test [6]. The TGI in test [7] came out at 9.63 µM; in test [9], 9.95 µM.

For the compound `COc1cc2c(c(OC)c1OC)C(=O)c1c-2n(CCCN)c(=O)c2cc([N+](=O)[O-])ccc12`, the GI50 in [1] was 0.364 µM; in test [2], 1.53 µM; in test [10], 1.76 µM; in test [5], 19 µM; in test [6], 1.52 µM; in [9], 0.562 µM. Further, the TGI in [1] is 1.95 µM; in test [2], 3.24 µM; in test [10] it was 3.53 µM; in test [5] it was 40.1 µM; in [6] it was 3.81 µM.

For `COc1ncnc2c1ncn2C/C(Br)=C(\Br)CCl`, the GI50 is 1.96 µM in test [1]; 2.19 µM in test [2]; 4.08 µM in test [3]; 2.79 µM in test [4]; 2.82 µM in [5]; 3.16 µM in test [6]. Moreover, the results for the GI50 in test [7] and in test [8] were 1.84 µM and 1.64 µM, respectively. Also, the TGI in test [1] turned out to be 5.59 µM; in [2] it was 5.59 µM; in [3], 16.4 µM; in test [4], 9.61 µM; in test [5] it was 9.38 µM; in [6], 11.4 µM. The TGI in test [7] was 4.16 µM; in test [8] it was 3.06 µM.

Take `COC(=O)/C=C\C1C(C(=O)OC)C2(C(=O)OC)CCC1(C(=O)OC)N2` (stereo not drawn): the TGI in [1] came out at 44.5 µM; in [2] it was 34.1 µM; in test [3], 19.6 µM; in [4], 29 µM; in test [5], 36.6 µM; in test [6], 36.4 µM. The TGI stood at 11.2 µM in test [7], 19.7 µM in test [8] and 42.5 µM in [9].

`CCC1(c2ccncc2)CCC(=O)NC1=O` (stereo not drawn): the TGI in test [1], in test [2], in test [3], in test [4], in test [5] and in test [6] was greater than 100 µM each time. For the same compound, the TGI in test [7], in [8] and in test [9] was greater than 100 µM in each case.

As for `CC1=C(CC/C(C)=C/CCC2(C)CCC([C@H](C)C(=O)O)OO2)C(C)(C)CCC1` (stereo partly drawn) (tested in a mixture with another compound), the TGI in test [1], in test [3], in [4], in [5], in [6] and in test [8] was greater than 100 µM in each case. In addition, the TGI in test [9] is greater than 100 µM.

As for `O=c1c2ccccc2c(C=NCCNCCO)c2oc3ccccc3n12`, the GI50 in [1] is 3.63 µM; in test [2], 7.16 µM; in [3] it was 11.7 µM; in test [4], 5.83 µM; in [5] it was 11.9 µM; in test [6] it was 19.5 µM. Besides, the GI50 in test [7] is 10.1 µM; in [8], 4.96 µM; in [9] it was 2.9 µM. Moreover, the TGI is 15.8 µM in test [1]; 20.1 µM in test [2]; 26.9 µM in test [3]; 18.4 µM in test [4]; 29 µM in test [5]; 33.6 µM in test [6]. Moreover, the TGI in [7] stood at 23.9 µM; in test [8] it was 22.6 µM; in [9], 11 µM.

Source of the values: PubChem BioAssay (NCI).
